Where two headings read alike, the source gives them in different places. Marks after values point to notes of the source that are not given here.
Key:
[1] = system: Campylobacter jejuni; test: Campylobacter carriage in chickens after oral challenge, caecal contents at day 35 (Example 9); assay type: in vivo; details: 340 μM in the drinking water
Description: A study was performed to evaluate reduction of Campylobacter carriage in chickens using ferric lactate in one treatment group, and FeQ (Q-PLEX) in a second treatment group. A third treatment group served as a positive control. The ferric lactate and FeQ were administered to the treatment groups at a concentration of 340 μM in the drinking water. Each treatment group comprised 12 birds per pen. All three treatment groups were orally challenged with 10^5 cfu of Campylobacter jejuni at day 14 of the trial. At day 35 all birds were euthanized, and quantitative bacteriology performed on caecal contents.

[2] = system: Pseudomonas aeruginosa PAO-1 strain
Description: Pseudomonas aeruginosa PAO-1 strain was routinely grown on either LB (Luria-Bertani, Oxoid, UK) agar plates at 37° C. or in broth at 37° C. with 200 rpm shaking. UV-sterilized glass slides were incubated in either 15 mL RPMI-1640 defined medium (Sigma, UK) or 15 mL RPMI-1640 with Fe-Lac inoculated with diluted (OD600=0.01) bacteria from overnight cultures at 37° C. with 60 rpm shaking for 72 hours. The slides were removed from bacterial culture and washed with 15 mL phosphate buffered saline at room temperature for 5 minutes three times and then rinsed with distilled H2O. After washing, the slides were stained with 20 μM SYTO17 dye (Invitrogen, UK) at room temperature for 30 minutes. After removing excess staining dye and air-drying, the samples were examined using a Carl Zeiss LSM 700 Laser Scanning Microscope with ZEN 2009 imaging software (Carl Zeiss, Germany). The coverage rate of bacteria on the surface was analysed using open source Image J 1.44 software (National Institute of Health, US).
Pseudomonas aeruginosa PAO-1 strain was routinely grown on either LB (Luria-Bertani, Oxoid, UK) agar plates at 37° C. or in broth at 37° C. with 200 rpm shaking. UV-sterilized glass slides were incubated in either 15 mL RPMI-1640 defined medium (Sigma, UK) or 15 mL RPMI-1640 with Fe-Cit inoculated with diluted (OD600=0.01) bacteria from overnight cultures at 37° C. with 60 rpm shaking for 72 hours. The slides were removed from bacterial culture and washed with 15 mL phosphate buffered saline at room temperature for 5 minutes three times and then rinsed with distilled H2O. After washing, the slides were stained with 20 μM SYTO17 dye (Invitrogen, UK) at room temperature for 30 minutes. After removing excess staining dye and air-drying, the samples were examined using a Carl Zeiss LSM 700 Laser Scanning Microscope with ZEN 2009 imaging software (Carl Zeiss, Germany). The coverage rate of bacteria on the surface was analysed using open source Image J 1.44 software (National Institute of Health, US).
Pseudomonas aeruginosa PAO-1 strain was routinely grown on either LB (Luria-Bertani, Oxoid, UK) agar plates at 37° C. or in broth at 37° C. with 200 rpm shaking. […] The slides were removed from bacterial culture and washed with 15 mL phosphate buffered saline at room temperature for 5 minutes three times and then rinsed with distilled H2O. After washing, the slides were stained with 20 μM SYTO17 dye (Invitrogen, UK) at room temperature for 30 minutes. After removing excess staining dye and air-drying, the samples were examined using a Carl Zeiss LSM 700 Laser Scanning Microscope with ZEN 2009 imaging software (Carl Zeiss, Germany). The coverage rate of bacteria on the surface was analysed using open source Image J 1.44 software (National Institute of Health, US).
Pseudomonas aeruginosa PAO-1 strain was routinely grown on either LB (Luria-Bertani, Oxoid, UK) agar plates at 37° C. or in broth at 37° C. with 200 rpm shaking. UV-sterilized glass slides were incubated in either 15 mL RPMI-1640 defined medium (Sigma, UK) or 15 mL RPMI-1640 with Fe-Gly inoculated with diluted (OD600=0.01) bacteria from overnight cultures at 37° C. with 60 rpm shaking for 72 hours. The slides were removed from bacterial culture and washed with 15 mL phosphate buffered saline at room temperature for 5 minutes three times and then rinsed with distilled H2O. […] The coverage rate of bacteria on the surface was analysed using open source Image J 1.44 software (National Institute of Health, US).

[3] = system: E. coli; test: Faecal E. coli counts in weaner pigs (Example 7); assay type: in vivo; details: 0.2 g/L in drinking water; one male pig per pen
From the text: (§1) Faeces, cleanliness and health scores was taken daily (Appendix). Faecal scores especially are indicative of diarrhea incidence, and are used in the industry as a general easy to observe gut health indicator. […] Faecal samples were stored under conditions allowing submission to SAC Veterinary Services for quantification of lactobacilli and coliforms, and their ratio (L:C ratio). These are used as key indicators for gut health, with a greater L:C ratio being indicative to better gut health.

[4] = 0.2 g/L in drinking water; weaner pigs
From the text: Animal Details • Number of treatments: 4 treatments • Number of replicates: 4 pens • Number of animals per pen: 4 pigs (balanced for sex as much as possible) • Number of pens in study: 16 pens • Animal species and breed: newly weaned pigs (Large White×Landrace) • Total number of animals: 64
There were four (4) treatments, each having 4 replicate pens with 4 pigs per replicate pen, i.e. 16 pigs per treatment or 64 pigs in total.
The feeds used were standard commercial, non-medicated feeds, tailored for weaner pigs. The feeds were offered as a 3 mm pellet and ad libitum. Water will also be available ad libitum.
The Ethology 3 building of SRUC's Easter Howgate Pig Unit were used in this study. This house consists of 6 rooms, each with 4 pens, so holds up to 24 pens of 4 m^2 each; for this study, 4 rooms were used. The animal house, which is an environmentally controlled building, were sanitized prior to use and between rounds. Pigs were placed at weaning on a thick layer of fresh white wood shavings or straw in pens. Pens were balanced as much as possible for litter origin and sex (2 intact males and 2 females). Pens were bedded with additional sawdust or straw as required, and were equipped with a single feeder and nipple drinker. Foods were available ad libitum throughout. Water were supplied via measured bottles per pen, and also available. Environmental temperature were maintained at 26° C. for the first 4 days after weaning and then decreased by 2° C. for the remainder of the experiment. Lights were on from 08:00 am till 18:00 μm and night-lights maintained between 18:00 μm and 08:00 am.
Pigs were individually weighed at day 0, 6 and 13. Pigs removed or found dead weighed, and date noted.
The volume of feed offered per pen was recorded daily from day 0 until day 12, inclusive. Feed refusals were recorded daily from day 1 until day 13, inclusive.
Pig weights, feed offered and feed refusals were used to determine averaged daily weight gain, daily feed intake and feed conversion ratio, over day 0 to 6, 6 to 13, as well as 0 to 13.
From day 0 until day 13, the volume of water offered per pen was recorded daily and water levels were recorded from the water bottles prior to morning feeding before tupping up.
Data gathered were analyzed using analysis of variance (ANOVA), to test for the effect of Fe-complex provision per se and Fe-complex type. Treatments were allocated in blocks within Ethology 3, as each of the four proposed treatments were in each of the four rooms used. As such, rooms were used as block in the model. Effects were considered significant at P<0.05.

[5] = system: lactobacilli; test: Faecal lactobacilli counts and L:C ratio in weaner pigs (Example 7); assay type: in vivo; details: 0.2 g/L in drinking water; one male pig per pen
From the text: as §1

[6] = Zootechnical efficacy of ferric citrate in milk replacer for rearing calves: body weight, feed intake, gain, FCR (Example 11); assay type: in vivo, rearing calves (German Holstein); details: milk replacer: T1 Fe(II) sulfate 85 g Fe/tonne, T2 plus ferric citrate 500 g/tonne feed
Description: The composition of the basal calf milk replacer is shown in Table 36, and the feeding schedule in Table 37.
The milk replacer was dissolved in warm water at around 50° C. The concentration was 125 grams per liter. The drinking temperature was kept at 38 to 40° C.
Additionally, a commercial calf starter feed (mash) without phytogenics, probiotics, organic acids or enzymes was provided. Straw was also provided in pre-weighed amounts throughout the 56 day feeding period.

[7] = Calf health scoring: body temperature, faeces quality, coughing, nasal discharge, antibiotic treatments (Example 11)
Description: A study was performed to evaluate the potential of ferric citrate (CI-PLEX™ CHELATE) to improve calf health, welfare, and performance. A total of 80 rearing calves (German Holstein) were used from d 12 to d 68 of age. 40 calves were fed a basal milk replacer (T1 Control). For comparison, 40 calves were fed the basal milk replacer with addition of ferric (III) citrate (T2 CI-PLEX™ CHELATE, 500 g/tonne feed) with a microtracer present at a rate of 10%, equivalent to 50 g/tonne for product identification purposes only. The basal milk replacer was supplemented with ferrous (II) sulfate at normal commercial rates (supplying 85 g Fe/tonne feed). T2 was also supplemented with normal commercial practice of Fe (ferrous (II) sulfate at 85 g Fe/tonne feed) with Fe at 85 g/tonne feed from the ferric (III) citrate (CI-PLEX™ CHELATE). […] The basal milk replacer batch was produced, and then split into 2 aliquots prior to adding the different inorganic or organic Fe sources to T1, and T2 diets. Calves were housed in rearing units, each unit with pens on either side of a central aisle.
The following parameters were measured: mean pen body weight (BW), feed intake (FI), body weight gain (BWG), feed conversion ratio (FCR, feed:gain) at study start and on days 7, 14, 21, 28, 35, 42, 49 and 56 days on trial. In addition, the following were also recorded: body temperature, faeces quality, coughing score, and nasal discharge.
The scoring of faecal consistency and of rectal temperature, coughing, nasal discharge as well as eye and ear scores were ranked daily.

[8] = system: Campylobacter jejuni NCTC 11168; test: Biofilm formation on plastic coated UV beads (Example 6); details: Fe-Tart and Fe-Cit at 50, 100, and 300 μM; FeQ (QPLEX) at 300
[9] = Score 0: normal, 1: slightly disorder, 2: middle disorder, 3: severe disorder

CC(O)C(=O)O.CC(O)C(=O)O.CC(O)C(=O)O.[Fe] (centres unmarked) [Fe-Lac, ferric lactate]
levels of Campylobacter in caeca at day 35, comparison between treatments (FIG. 11) [1]: lowest levels
levels of Campylobacter in caeca at day 35 compared with positive control (FIG. 11) ([1]; oral challenge at day 14): lower levels of Campylobacter in their caeca
biofilm formation (coverage rate on glass slide), dispersion effect (FIG. 5B) ([2]; 10, 50, and 100 μM): inhibits the formation of biofilm
biofilm formation (coverage rate on glass slide), titration effect (FIG. 5A) ([2]; 50, 100, and 300 μM, 72 hours): inhibits the formation of biofilm
Faecal E. coli counts, day 0 post weaning [3]: 8.40 10log cfu/g
Faecal E. coli counts, day 4 post weaning [3]: 7.80 10log cfu/g
Faecal E. coli counts, day 7 post weaning [3]: 6.37 10log cfu/g
Faecal E. coli counts, day 14 post weaning [3]: 5.98 10log cfu/g
Averaged body weight gain, days 0 to 4 post weaning [4]: 153 g/day/pig
Averaged body weight gain, days 0 to 7 post weaning [4]: 172 g/day/pig
Averaged body weight gain, days 0 to 14 post weaning [4]: 380 g/day/pig
Averaged body weight gain, days 4 to 7 post weaning [4]: 197 g/day/pig
Averaged body weight gain, days 7 to 14 post weaning [4]: 587 g/day/pig
Averaged daily feed intake, days 0 to 4 post weaning [4]: 154 g/day/pig
Averaged daily feed intake, days 0 to 7 post weaning [4]: 223 g/day/pig
Averaged daily feed intake, days 0 to 14 post weaning [4]: 378 g/day/pig
Averaged daily feed intake, days 4 to 7 post weaning [4]: 315 g/day/pig
Averaged daily feed intake, days 7 to 14 post weaning [4]: 532 g/day/pig
Body weights, day 0 post weaning [4]: 9.74 kg/pig
Body weights, day 4 post weaning [4]: 10.35 kg/pig
Body weights, day 7 post weaning [4]: 10.94 kg/pig
Body weights, day 14 post weaning [4]: 15.05 kg/pig
Feed conversion ratio, days 0 to 4 post weaning [4]: 0.54 g/g
Feed conversion ratio, days 0 to 7 post weaning [4]: 2.67 g/g
Feed conversion ratio, days 0 to 14 post weaning [4]: 1.00 g/g
Feed conversion ratio, days 7 to 14 post weaning [4]: 0.91 g/g
Faecal lactobacilli counts, day 0 post weaning [5]: 8.68 10log cfu/g
Faecal lactobacilli counts, day 4 post weaning [5]: 8.76 10log cfu/g
Faecal lactobacilli counts, day 7 post weaning [5]: 8.97 10log cfu/g
Faecal lactobacilli counts, day 14 post weaning [5]: 8.77 10log cfu/g
Lactobacilli to E. coli ratio (L:C), day 0 post weaning [5]: 1.03
Lactobacilli to E. coli ratio (L:C), day 4 post weaning [5]: 1.08
Lactobacilli to E. coli ratio (L:C), day 7 post weaning [5]: 1.33
Lactobacilli to E. coli ratio (L:C), day 14 post weaning [5]: 1.45

O=S(=O)([O-])[O-].[Fe+2] [Fe (II)sulfate]
ADFI 1-21 d of rearing [6]: 804 ± 38 g
ADFI 1-56 d of rearing [6]: 1.49 ± 0.02 kg
ADFI 22-56 d of rearing [6]: 1.90 ± 0.02 kg
ADG 1-21 d of rearing [6]: 268 ± 30^a g
ADG 1-56 d of rearing [6]: 723 ± 36^a g
ADG 22-56 d of rearing [6]: 792 ± 48^a g
FCR 1-21 d of rearing [6]: 1.339 ± 0.142^a feed:gain
FCR 1-56 d of rearing [6]: 2.065 ± 0.100^a feed:gain
FCR 22-56 d of rearing [6]: 2.408 ± 0.148^a feed:gain
Mean BW at d 56 of rearing [6]: 91.9 ± 2.0^a kg
Mean daily body temperature score 1-56 d of rearing [7, 9]: 0.09 ± 0.11^a
Mean daily coughing score 1-56 d of rearing [7, 9]: 0.51 ± 0.13
Mean daily ear score 1-56 d of rearing [7, 9]: 0.04 ± 0.07
Mean daily eye score 1-56 d of rearing [7, 9]: 0.04 ± 0.07
Mean daily faecal score 1-56 d of rearing [7, 9]: 0.68 ± 0.14
Mean daily nasal discharge score 1-56 d of rearing [7, 9]: 0.44 ± 0.12
% excluded, 1-56 d of rearing ([7]; bovine, in vivo): 0%
No calves excluded, 1-56 d of rearing ([7]; bovine, in vivo): 1
No calves treated with antibiotics, 1-56 d of rearing ([7]; of 40 calves per treatment): 3

NCC(=O)[O-].NCC(=O)[O-].NCC(=O)[O-].[Fe+3] [Fe-Gly, Ferric glycinate]
biofilm formation (coverage rate on glass slide) ([2]; 300 μM, 72 hours): able to inhibit biofilm formation
biofilm formation (coverage rate on glass slide) ([2]; 100 and 300 μM, 72 hours): inhibits the formation of biofilm

O=C([O-])C(O)C(O)C(=O)[O-].O=C([O-])C(O)C(O)C(=O)[O-].O=C([O-])C(O)C(O)C(=O)[O-].[Fe+3].[Fe+3] (centres unmarked) [Fe-Tart, ferric tartrate]
C. jejuni biofilm formation on plastic coated UV beads (FIG. 9) [8]: inhibited C. jejuni biofilm formation
biofilm formation (coverage rate on glass slide) ([2]; 100 and 300 μM, 72 hours): inhibits the formation of biofilm
Faecal E. coli counts, day 0 post weaning [3]: 8.67 10log cfu/g
Faecal E. coli counts, day 4 post weaning [3]: 6.42 10log cfu/g
Faecal E. coli counts, day 7 post weaning [3]: 6.51 10log cfu/g
Faecal E. coli counts, day 14 post weaning [3]: 6.43 10log cfu/g
Faecal lactobacilli counts, day 0 post weaning [5]: 8.84 10log cfu/g
Faecal lactobacilli counts, day 4 post weaning [5]: 8.94 10log cfu/g
Faecal lactobacilli counts, day 7 post weaning [5]: 9.48 10log cfu/g
Faecal lactobacilli counts, day 14 post weaning [5]: 8.79 10log cfu/g

Reference: US10653658B2, “Biofilm inhibiting compositions enhancing weight gain in livestock” (Akeso Biomedical, Inc., priority 2015, dated 2020)
